# From EPA's ToxRefDB 2
# Columns and labels:
# dog [1] = details: Chronic toxicity, beagle, Oral, Capsule, dose end: 52 week
# rat [2] = details: Multigenerational reproductive toxicity study, sprague dawley, Oral, Feed, dose end: 2 generation
# mouse [3] = details: Carcinogenicity, cd1, Oral, Feed, dose end: 2 year, group: systemic
# rat [4] = details: Combined chronic toxicity/carcinogenicity, sprague dawley, Oral, Feed, dose end: 24 month
# rat [5] = details: Subchronic oral toxicity in rodents, fischer, Feed, dose end: 13 week, group: systemic
# dog [6] = details: Subchronic oral toxicity in nonrodent, beagle, Feed, dose end: 13 week, group: systemic
# mouse [7] = details: Subchronic oral toxicity in rodents, cd1, Feed, dose end: 13 week, group: systemic, systemic / clinical chemistry / alkaline phosphatase (alp/alk) / alkaline phosphatase (alp/alk) + systemic / organ weight / liver / nos + …
# dog [8] = details: Chronic toxicity, beagle, Oral, Feed, dose end: 52 week, group: systemic
# rat [9] = details: Combined chronic toxicity/carcinogenicity, fischer, Oral, Feed, dose end: 2 year, group: systemic
# rat [10] = details: Multigenerational reproductive toxicity study, other, Oral, Feed, dose end: 2 generation
# [11] = group: cholinesterase, cholinesterase / cholinesterase / cholinesterase / brain cholinesterase (che) + cholinesterase / cholinesterase / cholinesterase / plasma …
# [12] = group: systemic, systemic / in life observation / body weight / body weight gain + systemic / in life observation / food consumption / food efficiency + …
# [13] = group: offspring, developmental / offspring survival late / lactation index / lactation index
# [14] = group: offspring, systemic / in life observation / body weight / offspring (pup) weight
# [15] = group: parental, systemic / in life observation / body weight / body weight
# [16] = group: reproductive, reproductive / offspring survival early / litter size / litter size
# [17] = group: reproductive, reproductive / offspring survival early / litter size / litter size + reproductive / offspring survival early / litter viability other / …
# [18] = systemic / in life observation / mortality / mortality + systemic / hematology / lymphocyte / lymphocyte + systemic / in life observation / …
# [19] = group: cholinesterase, cholinesterase / cholinesterase / cholinesterase / brain cholinesterase (che) + cholinesterase / cholinesterase / cholinesterase / …
# [20] = group: systemic, systemic / in life observation / mortality / mortality
# [21] = group: systemic, systemic / in life observation / mortality / mortality + systemic / clinical chemistry / alanine aminotransferase (alt/sgpt) / alanine …
# [22] = systemic / clinical chemistry / albumin / albumin + systemic / clinical chemistry / cholesterol / cholesterol + systemic / clinical …
# [23] = systemic / pathology microscopic / kidney / crystals + systemic / pathology microscopic / kidney / hyperplasia + systemic / organ weight / …
# [24] = systemic / pathology microscopic / kidney / hyperplasia + systemic / in life observation / body weight / body weight gain + systemic / in …
# [25] = systemic / in life observation / body weight / body weight + systemic / in life observation / body weight / body weight gain + systemic / …
# [26] = group: offspring, systemic / in life observation / body weight / offspring (pup) weight gain
# [27] = group: parental, systemic / organ weight / liver / relative to body weight
# [28] = group: parental, systemic / pathology microscopic / kidney / crystals + systemic / pathology microscopic / kidney / degeneration + systemic / pathology …
structure (smiles),measurement,setting,value
COP(=O)(OC)O/C(C)=C/C(=O)N(C)C [Dicrotophos],LEL,dog [1]; [11],0.1 mg/kg/day
same,LOAEL,dog [1]; [11],0.1 mg/kg/day
same,NEL,dog [1]; [11],0.025 mg/kg/day
same,NOAEL,dog [1]; [11],0.025 mg/kg/day
same,LOAEL,"dog [1]; group: systemic, systemic / in life observation / body weight / body weight gain + systemic / in life observation / food consumption / food efficiency",0.1 mg/kg/day
same,LEL,dog [1]; [12],0.1 mg/kg/day
same,NEL,dog [1]; [12],0.025 mg/kg/day
same,NOAEL,dog [1]; [12],0.025 mg/kg/day
same,LOAEL,rat [2]; [13],> 2.53 mg/kg/day
same,NOAEL,rat [2]; [13],≥ 2.53 mg/kg/day
same,LEL,rat [2]; [14],0.05 mg/kg/day
same,NEL,rat [2]; [14],< 0.05 mg/kg/day
same,LEL,rat [2]; [15],0.06 mg/kg/day
same,NEL,rat [2]; [15],< 0.06 mg/kg/day
same,LOAEL,"rat [2]; group: parental, systemic / in life observation / body weight / body weight + systemic / in life observation / food consumption / food efficiency",0.49 mg/kg/day
same,NOAEL,"rat [2]; group: parental, systemic / in life observation / body weight / body weight + systemic / in life observation / food consumption / food efficiency + systemic…",0.05 mg/kg/day
same,LEL,rat [2]; [16],0.56 mg/kg/day
same,LOAEL,rat [2]; [16],0.56 mg/kg/day
same,NEL,rat [2]; [17],0.05 mg/kg/day
same,NOAEL,rat [2]; [17],0.05 mg/kg/day
same,LOAEL,mouse [3]; systemic / in life observation / mortality / mortality,1.58 mg/kg/day
same,NEL,mouse [3]; [18],0.31 mg/kg/day
same,NOAEL,mouse [3]; [18],0.31 mg/kg/day
same,LEL,mouse [3]; systemic / in life observation / mortality / mortality + systemic / pathology gross / eye / discolored,1.58 mg/kg/day
same,LEL,rat [4]; [19],0.02 mg/kg/day
same,LOAEL,rat [4]; [19],0.02 mg/kg/day
same,NEL,rat [4]; [19],< 0.02 mg/kg/day
same,NOAEL,rat [4]; [19],< 0.02 mg/kg/day
same,LEL,rat [4]; [20],0.25 mg/kg/day
same,LOAEL,rat [4]; [20],0.25 mg/kg/day
same,NEL,rat [4]; [21],0.02 mg/kg/day
same,NOAEL,rat [4]; [21],0.02 mg/kg/day
COc1cnc(OC)n2nc(NS(=O)(=O)c3c(OCC(F)F)cccc3C(F)(F)F)nc12 [Penoxsulam],LOAEL,rat [5]; [22],263 mg/kg/day
same,NOAEL,rat [5]; [22],53.3 mg/kg/day
same,LEL,rat [5]; systemic / in life observation / clinical signs / perineal soiling,52.3 mg/kg/day
same,NEL,rat [5]; systemic / in life observation / clinical signs / perineal soiling + systemic / hematology / blood clotting / blood clotting - prothrombin …,5.2 mg/kg/day
same,LOAEL,dog [6]; systemic / pathology microscopic / kidney / crystals + systemic / pathology microscopic / kidney / hyperplasia,49.4 mg/kg/day
same,LEL,dog [6]; [23],49.4 mg/kg/day
same,NEL,dog [6]; [23],17.8 mg/kg/day
same,NOAEL,dog [6]; [23],17.8 mg/kg/day
same,LEL,mouse [7],511 mg/kg/day
same,LOAEL,mouse [7],> 1030 mg/kg/day
same,NEL,mouse [7],102 mg/kg/day
same,NOAEL,mouse [7],≥ 1030 mg/kg/day
same,LOAEL,dog [8]; systemic / pathology microscopic / kidney / hyperplasia,46.2 mg/kg/day
same,LEL,dog [8]; [24],46.2 mg/kg/day
same,NEL,dog [8]; [24],14.7 mg/kg/day
same,NOAEL,dog [8]; [24],14.7 mg/kg/day
same,LOAEL,rat [9]; [25],254 mg/kg/day
same,NEL,rat [9]; [25],5.1 mg/kg/day
same,NOAEL,rat [9]; [25],50.9 mg/kg/day
same,LEL,rat [9]; systemic / pathology microscopic / kidney / hyperplasia + systemic / in life observation / clinical signs / perineal soiling,50.9 mg/kg/day
same,LEL,"rat [10]; group: offspring, developmental / developmental landmark / preputial separation / preputial separation",100 mg/kg/day
same,LOAEL,rat [10]; [26],300 mg/kg/day
same,NOAEL,rat [10]; [26],100 mg/kg/day
same,NEL,"rat [10]; group: offspring, systemic / in life observation / body weight / offspring (pup) weight gain + developmental / developmental landmark / preputial separation…",30 mg/kg/day
same,LEL,rat [10]; [27],30 mg/kg/day
same,NEL,rat [10]; [27],< 30 mg/kg/day
same,LOAEL,rat [10]; [28],100 mg/kg/day
same,NOAEL,rat [10]; [28],30 mg/kg/day
